Patent US20160084855A1, “Compositions and Methods for Modulation and Detection of Immune and Inflammatory Responses” (UNIVERSITY OF CONNECTICUT, priority 2013, published 2016)
“Also recorded” adds a separate entry of the source.

Columns and labels:
TLR4 = details: Gomi et al., J Immunol. 2002; cited from earlier work
TLR2 = molecular target: T1, TLR2 (Mus musculus, UniProt Q9QUN7); assay: TLR2 engagement in mouse bone cells; type: cell-based
T1 construct: endogenous in cells; host or cells: mouse bone cells
Source text: Phospholipase A2 enzymes are recovered in all tissues and levels of this enzyme are increased in association with virtually all chronic inflammatory diseases. In fact, phospholipase A2 inhibitors are being used to treat atherosclerosis, multiple sclerosis, and a variety of other conditions. Phospholipase A2 hydrolyzes glycerol phospholipids so that the ester linked fatty acid in the #2 carbon position of glycerol is released, but only for a glycerol ester linkage in the L enantiomeric configuration. Phospholipase A2 will not hydrolyze fatty acid linked in the D enantiomeric form of glycerol.

CCL2 = assay: Serum CCL2 by ELISA after injection of lipid into mice; type: in vivo, mouse; details: four hours
Description: Lipid 654 was injected intraperitoneally (i.p.) into mice and three to four hours later serum was drawn and analyzed for levels of CCL2 via ELISA. Both female wild type (WT) C57BL/6 mice and female TLR2-deficient (TLR2−/−) mice were injected i.p. with either DMSO (vehicle control; VC) or Lipid 654. Three to four hours later, serum was drawn from these mice and analyzed for levels of CCL2.
In vivo assays: Wild-type (WT) C57BL/6 mice or TLR2^−/− mice were injected intraperitoneally (i.p.) or intravenously (i.v.) with vehicle control or specific lipids. Four hours later, blood samples were obtained from mice, and the mice were euthanized. Serum was separated from the blood samples and frozen at −80° C. until analysis. Serum samples were analyzed for levels of CCL2 by ELISA (R&D, Minneapolis, Minn.).
Lipid 654 was injected i.p. in 50% DMSO and lipid 430 was injected i.v. in phosphate-buffered saline (PBS). WT female C57BL/6 mice and TLR2^−/− female mice were injected with either vehicle, lipid 654, or lipid 430. Four hours later, serum was recovered from these mice and analyzed for levels of CCL2. […] The same was true for lipid 430.

human TLR4 = molecular target: T2, human TLR4 (Homo sapiens, UniProt O00206+Q9Y6Y9); assay: HEK293 cells transfected with human TLR4, CD14 (MD-2) and SEAP reporter; type: cell-based; details: 24 hours; for Activation of TLR4-expressing HEK293 cells: Example 23, lipids 0.69 μg/ml, LPS 1 μg/ml
T2 construct: host or cells: HEK293
Description: (§1) Cell lines and assays: Human embryonic kidney cells (HEK293 cells), either nontransfected or transfected with human TLR2 or human TLR4 and stably expressing MD-2 and CD14, were purchased from InvivoGen. Cells were cultured in Dulbecco's modified Eagle's medium (DMEM; Gibco) containing 4.5 g/liter 1-glucose and 10% fetal bovine serum (FBS). The activities of specific TLR agonists were measured through a colorimetric assay for the secretory embryonic alkaline phosphatase (SEAP), a reporter gene that is linked to NF-κB activation. Measurement of SEAP activity using the Quanti-blue substrate (InvivoGen) after TLR agonist treatment was carried out in test medium (DMEM, 10% FBS) without antibiotics. NF-κB activation was expressed as a response ratio for each stimulus relative to SEAP activity in unstimulated (vehicle control) cells. For in vitro testing, all lipid preparations tested were solubilized in a 50% mixture of dimethyl sulfoxide (DMSO)-water (approximately 1.11% DMSO in the final culture medium).
To test whether lipid 654 and lipid 430 can function as ligands for TLR4, HEK293 cells transfected with the human TLR4, CD14, and MD-2 genes but not expressing TLR2 were utilized.

human TLR2 = molecular target: T3, human TLR2 (Homo sapiens, UniProt O60603); assay: HEK293 cells transfected with human TLR2, CD14 (MD-2) and SEAP reporter; type: cell-based; details: for HEK cell activation versus DMSO vehicle (stimulated/nonstimulated ratio): 24 h, MMP 0.2 μg/ml, LTA 2 μg/ml, lipid 654 and lipid 430 0.69 μg/ml, P<0.05; for Activation of human TLR2 in HEK cells: HPLC fractions of P. gingivalis total lipids; for Effect of pretreatment with anti-human TLR2 antibody on HEK-TLR2 cell activation: antibody 10 μg/mL 1 hour, MMP 0.1 μg/ml, LTA 1 μg/ml, lipid 430 and lipid 654 0.69 μg/ml
T3 construct: host or cells: HEK293
Source text: In vitro effects, human cells: HEK293 cells (human embryonic kidney cells) transfected with the human TLR2 and SEAP (secreted embryonic alkaline phosphatase) genes, were used to assay the function of Lipid 654 in vitro. The HEK cells, which naturally express variable levels of TLRs 1, 3, 5, 6, 7 and 9, were also transfected with the gene for CD14. CD14 is a co-receptor that enhances TLR2 responses. Additionally, TLR2 responses are most often mediated via another co-receptor which, in most cases, is either TLR1 or TLR6. The SEAP reporter gene is under the control of the IFN-β minimal promoter fused to five NF-κB and AP-1-binding sites. Stimulation with a TLR2 ligand activates NF-κB and AP-1 which induce the production of SEAP which is then quantitated as a colorimetric change in the presence of a detection medium.
Lipid 654, solubilized in 50% DMSO in water, and two documented TLR2 agonists, MMP and lipotechoic acid (LTA), were incubated for 24 hours with the HEK cells in the presence or absence of antibodies to TLR2 and TLR6.
as §1
To determine the ability of P. gingivalis lipids to activate human cells via TLRs, the total lipids of P. gingivalis were fractionated by HPLC, and an aliquot of each fraction was dried and dissolved in 50% DMSO in water. Each HPLC fraction was then tested for cell activation by using HEK293 cells stably transfected with human TLR2, CD14, MD-2, and SEAP genes. In addition, the HEK293 cells naturally express variable levels of TLRs 1, 3, 5, 6, 7, and 9. The SEAP reporter gene is under the control of the beta interferon minimal promoter fused to five NF-κB and AP-1 binding sites. Stimulation with a TLR2 ligand activates NF-κB and AP-1, which induces the production of SEAP. SEAP is then quantitated via a colorimetric change in medium samples following the addition of a suitable enzyme substrate. Using this cell screen for human TLR2 engagement, each HPLC lipid fraction was screened for cell activation.

female SJL mice with EAE = assay: EAE by transfer of PLP-stimulated lymph node lymphocytes into SJL mice; type: in vivo, mouse; details: 2 ng of Lipid 654 intravenously on day of cell transfer; 30 days; 5 mice; p=0.0006
Description: Female SJL mice were injected intra-peritoneally with 30×10^6 4-day in-vitro-activated proteolipid protein (PLP)-stimulated lymph node lymphocytes and on the same day injected intravenously with either phosphate buffered saline (PBS) (vehicle control=“VC”) or 2 ng of Lipid 654. Mice were followed for 30 days for development of EAE and scored as 1=tail paralysis; 2=abnormal gait; 3=paralyzed hind legs; 4=paralyzed front and hind legs; 5=death. The results in FIG. 21 depict the daily mean for 5 mice injected with the VC and 5 mice injected with Lipid 654. […] Thus, MS patients can be treated directly with Lipid 654 or with commensal bacteria that produce increased amounts of Lipid 654.

T2 sequence (O00206 24-839): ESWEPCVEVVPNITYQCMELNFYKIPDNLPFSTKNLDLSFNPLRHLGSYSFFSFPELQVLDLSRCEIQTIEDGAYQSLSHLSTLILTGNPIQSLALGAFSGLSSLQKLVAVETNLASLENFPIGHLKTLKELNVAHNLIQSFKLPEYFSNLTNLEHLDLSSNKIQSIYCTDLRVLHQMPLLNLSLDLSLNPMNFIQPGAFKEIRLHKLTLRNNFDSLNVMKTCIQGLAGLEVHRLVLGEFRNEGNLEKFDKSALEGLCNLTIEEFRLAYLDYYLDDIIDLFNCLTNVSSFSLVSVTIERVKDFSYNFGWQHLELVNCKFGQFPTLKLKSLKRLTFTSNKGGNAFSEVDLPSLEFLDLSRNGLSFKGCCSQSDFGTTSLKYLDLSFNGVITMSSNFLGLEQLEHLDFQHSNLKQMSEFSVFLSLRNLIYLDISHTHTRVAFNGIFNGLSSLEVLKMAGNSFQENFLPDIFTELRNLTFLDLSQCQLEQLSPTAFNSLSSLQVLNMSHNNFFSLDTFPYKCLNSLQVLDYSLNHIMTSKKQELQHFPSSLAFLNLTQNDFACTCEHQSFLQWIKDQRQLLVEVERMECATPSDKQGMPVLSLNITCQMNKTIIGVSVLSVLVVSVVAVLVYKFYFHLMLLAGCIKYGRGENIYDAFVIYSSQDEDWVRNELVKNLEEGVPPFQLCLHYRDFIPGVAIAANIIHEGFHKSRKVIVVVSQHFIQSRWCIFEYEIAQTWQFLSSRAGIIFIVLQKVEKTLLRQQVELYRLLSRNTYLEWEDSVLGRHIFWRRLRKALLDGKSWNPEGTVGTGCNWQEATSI
T2 sequence (Q9Y6Y9 17-160 limits assumed): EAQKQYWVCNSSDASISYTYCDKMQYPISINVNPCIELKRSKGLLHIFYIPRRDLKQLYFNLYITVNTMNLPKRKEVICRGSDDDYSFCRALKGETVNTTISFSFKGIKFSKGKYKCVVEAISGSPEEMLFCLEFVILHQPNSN
T3 sequence (O60603 21-784): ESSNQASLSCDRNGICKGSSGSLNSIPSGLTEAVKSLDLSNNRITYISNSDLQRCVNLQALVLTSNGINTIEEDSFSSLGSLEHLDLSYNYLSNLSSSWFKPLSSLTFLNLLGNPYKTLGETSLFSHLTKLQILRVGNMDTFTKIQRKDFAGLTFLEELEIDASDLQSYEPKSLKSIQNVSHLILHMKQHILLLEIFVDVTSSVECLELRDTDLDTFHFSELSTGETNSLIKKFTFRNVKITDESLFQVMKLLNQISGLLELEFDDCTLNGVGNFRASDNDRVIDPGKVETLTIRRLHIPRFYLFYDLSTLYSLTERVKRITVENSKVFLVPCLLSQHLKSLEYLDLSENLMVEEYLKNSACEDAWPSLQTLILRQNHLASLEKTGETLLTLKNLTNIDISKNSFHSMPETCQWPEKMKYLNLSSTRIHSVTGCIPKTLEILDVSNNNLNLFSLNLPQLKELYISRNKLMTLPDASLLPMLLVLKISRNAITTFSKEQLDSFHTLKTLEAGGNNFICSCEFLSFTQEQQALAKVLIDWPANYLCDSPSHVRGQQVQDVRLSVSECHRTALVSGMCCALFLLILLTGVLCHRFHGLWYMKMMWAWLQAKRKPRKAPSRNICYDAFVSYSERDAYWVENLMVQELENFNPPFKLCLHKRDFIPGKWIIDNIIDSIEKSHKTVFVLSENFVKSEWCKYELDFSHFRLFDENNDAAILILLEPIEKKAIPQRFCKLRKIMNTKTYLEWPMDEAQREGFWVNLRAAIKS
T3 sequence (Q9Y2C9 32-796 partner): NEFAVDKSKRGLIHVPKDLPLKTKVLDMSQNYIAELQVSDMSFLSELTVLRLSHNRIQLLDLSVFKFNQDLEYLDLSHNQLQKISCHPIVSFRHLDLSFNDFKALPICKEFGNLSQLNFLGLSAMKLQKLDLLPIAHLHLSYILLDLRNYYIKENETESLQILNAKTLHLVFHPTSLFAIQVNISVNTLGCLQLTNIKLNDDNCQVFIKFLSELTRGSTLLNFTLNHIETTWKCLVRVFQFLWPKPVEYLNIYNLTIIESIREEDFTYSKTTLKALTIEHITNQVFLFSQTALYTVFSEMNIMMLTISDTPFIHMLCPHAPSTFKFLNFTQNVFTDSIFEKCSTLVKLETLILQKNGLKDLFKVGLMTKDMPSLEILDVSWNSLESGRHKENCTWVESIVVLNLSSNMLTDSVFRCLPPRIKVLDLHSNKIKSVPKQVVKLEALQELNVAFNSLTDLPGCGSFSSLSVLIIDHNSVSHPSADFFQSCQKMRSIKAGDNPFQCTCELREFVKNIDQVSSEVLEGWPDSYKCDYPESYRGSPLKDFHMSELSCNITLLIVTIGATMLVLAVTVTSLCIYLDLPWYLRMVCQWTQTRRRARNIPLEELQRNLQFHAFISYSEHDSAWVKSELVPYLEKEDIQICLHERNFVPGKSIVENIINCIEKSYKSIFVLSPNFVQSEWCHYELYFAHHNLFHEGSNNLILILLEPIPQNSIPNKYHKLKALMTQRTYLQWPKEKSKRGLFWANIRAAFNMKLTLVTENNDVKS
T1 sequence (Q9QUN7 25-784): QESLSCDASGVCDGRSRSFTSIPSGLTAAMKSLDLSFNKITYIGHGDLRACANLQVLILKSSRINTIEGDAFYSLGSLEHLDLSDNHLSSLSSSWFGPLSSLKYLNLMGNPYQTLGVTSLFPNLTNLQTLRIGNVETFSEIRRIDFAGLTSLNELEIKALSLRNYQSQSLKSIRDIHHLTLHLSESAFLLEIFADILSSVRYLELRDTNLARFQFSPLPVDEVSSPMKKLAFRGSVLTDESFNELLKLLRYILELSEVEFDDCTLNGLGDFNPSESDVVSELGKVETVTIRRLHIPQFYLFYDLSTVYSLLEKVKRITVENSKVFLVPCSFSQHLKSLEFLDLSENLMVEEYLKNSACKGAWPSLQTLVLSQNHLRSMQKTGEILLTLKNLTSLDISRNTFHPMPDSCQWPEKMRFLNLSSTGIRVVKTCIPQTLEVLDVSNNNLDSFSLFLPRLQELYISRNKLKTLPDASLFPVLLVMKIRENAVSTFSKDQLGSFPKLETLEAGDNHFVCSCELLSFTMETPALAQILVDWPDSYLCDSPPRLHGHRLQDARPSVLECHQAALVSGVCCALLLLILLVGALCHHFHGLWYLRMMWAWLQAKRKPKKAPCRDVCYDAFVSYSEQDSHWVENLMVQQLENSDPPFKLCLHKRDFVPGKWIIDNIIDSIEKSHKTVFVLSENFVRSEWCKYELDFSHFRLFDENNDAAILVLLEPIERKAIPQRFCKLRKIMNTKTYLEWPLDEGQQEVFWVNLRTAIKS
T1 sequence (Q9EPW9 28-795 partner): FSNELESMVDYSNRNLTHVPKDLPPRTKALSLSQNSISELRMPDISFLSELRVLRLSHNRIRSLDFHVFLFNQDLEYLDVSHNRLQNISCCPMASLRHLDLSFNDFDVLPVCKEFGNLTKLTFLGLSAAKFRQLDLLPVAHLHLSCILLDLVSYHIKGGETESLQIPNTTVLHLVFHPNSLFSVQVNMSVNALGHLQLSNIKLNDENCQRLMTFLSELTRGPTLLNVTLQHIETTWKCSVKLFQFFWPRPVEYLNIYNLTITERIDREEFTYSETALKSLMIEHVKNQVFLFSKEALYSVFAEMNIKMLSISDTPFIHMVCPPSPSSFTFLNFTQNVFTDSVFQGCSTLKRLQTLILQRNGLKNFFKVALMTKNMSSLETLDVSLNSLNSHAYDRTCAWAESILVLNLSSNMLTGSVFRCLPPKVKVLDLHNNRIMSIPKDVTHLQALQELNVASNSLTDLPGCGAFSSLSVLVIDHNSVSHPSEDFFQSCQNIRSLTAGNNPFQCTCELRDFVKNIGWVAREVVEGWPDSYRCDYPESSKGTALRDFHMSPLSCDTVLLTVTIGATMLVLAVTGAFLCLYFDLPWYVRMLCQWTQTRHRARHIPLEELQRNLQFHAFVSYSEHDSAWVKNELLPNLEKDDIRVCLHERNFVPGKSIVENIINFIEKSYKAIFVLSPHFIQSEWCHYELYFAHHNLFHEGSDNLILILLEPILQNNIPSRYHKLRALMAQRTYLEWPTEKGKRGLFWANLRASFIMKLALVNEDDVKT
Description for phospholipase A2 (PLA2): Aliquots of the enriched 654 (10 μg each) were dispensed into conical vials and the residual solvent was dried. Tris-buffered (10 mM) saline containing either no calcium/0.01% sodium EDTA, 2.5 mM calcium, or 10 mM calcium was added to specific vials (1.0 ml) and the solution was sonicated for 30 seconds. Specific vials were then supplemented with either porcine pancreatic phospholipase A2 (PP PLA2), honey bee venom PLA2, bovine liver nonspecific esterase (BLE), phospholipase C (PLC), lipoprotein lipase (LL), phospholipase D (PLD), or cobra venom factor (CVF). PP PLA2 or HBV PLA2 was added at a concentration of 96 or 120 U/ml, respectively. All other lipase preparations were used at this or a higher concentration. Controls were dissolved in the indicated Tris buffer but were not supplemented with enzyme. Each vial was stirred for 3 days after which the hydrolyzate was acidified with 100 ul of glacial acetic acid and extracted three times with chloroform. The pooled extracts were dried, reconstituted in HPLC solvent, and evaluated for recovery of Lipid 654 and Lipid 430 using MRM-MS as previously described. Two different isolates of Lipid 654, indicated as (A) and (B), were compared for hydrolysis by either porcine pancreatic or honey bee venom PLA2.

| SMILES | Innate immune activation via TLR4 (TLR4) | Potency in engaging TLR2 relative to the Lipid 654 preparation (TLR2) | TLR2 agonism (TLR2; Lipid 430 released with PLA2 treatment of Lipid 654) | Serum levels of CCL2 (CCL2; TLR2−/− mice, lipid 430 2.5 μg i.v. in PBS) | Serum levels of CCL2 (CCL2; WT mice, lipid 430 2.5 μg i.v. in PBS) | Activation of TLR4-expressing HEK293 cells (human TLR4) | HEK cell activation versus DMSO vehicle (stimulated/nonstimulated ratio) (human TLR2) | Activation of human TLR2 in HEK cells (human TLR2; 24 hours) | Effect of pretreatment with anti-human TLR2 antibody on HEK-TLR2 cell activation (human TLR2; 24 hours) | Serum levels of CCL2 (CCL2; TLR2−/− mice, lipid 654 1 μg i.p. in 50% DMSO) | Serum levels of CCL2 (CCL2; WT mice, lipid 654 1 μg i.p. in 50% DMSO) | Hydrolysis to Lipid 430 by other common lipase enzymes (phospholipase A2 (PLA2); BLE, PLC, LL, PLD, CVF, 3 days) | Hydrolysis by phospholipase A2 enzymes (phospholipase A2 (PLA2); porcine pancreas PLA2 96 U/ml or honey bee venom PLA2 120 U/ml, 3 days) | Portion not hydrolyzed by PLA2 (phospholipase A2 (PLA2); repeated treatment with PLA2) | Activation of TLR4-expressing cell line (human TLR4; Example 17, LPS derived from P. gingivalis, two preparations of Lipid 654) | Course of EAE compared to vehicle control (female SJL mice with EAE) | Effect of anti-TLR2 and anti-TLR6 antibodies on NF-κB activation (human TLR2; Example 17, 24 hours) | NF-κB activation (SEAP) (human TLR2; Example 17, 24 hours, no antibodies) |
| --- | --- | --- | --- | --- | --- | --- | --- | --- | --- | --- | --- | --- | --- | --- | --- | --- | --- | --- |
| CC(C)CCCCCCCCCCCC(=O)O[C@H](CCCCCCCCCCCC(C)C)CC(=O)NCC(=O)NC(CO)C(=O)O (stereo partly shown) [Flavolipin] | acting as an agonist for TLR4 |  |  |  |  |  |  |  |  |  |  |  |  |  |  |  |  |  |
| CC(C)CCCCCCCCCCCC(O)CC(=O)NCC(=O)N[C@@H](CO)C(=O)O (stereo partly shown) [Lipid 430] |  | at least ten fold more potent | strong TLR2 agonist | failed to do so | induced a significant increase in serum levels of CCL2 | showed no capacity to activate the TLR4-expressing cell line | promoted significant HEK cell activation over the control cells; also recorded: significantly elevated over the DMSO vehicle | activates HEK cells through TLR2; also recorded: show the capacity to activate human TLR2 in HEK cells | significantly inhibited by pretreatment with anti-human TLR2 antibody |  |  |  |  |  |  |  |  |  |
| CC(C)CCCCCCCCCCCC(=O)OC(CCCCCCCCCCCC(C)C)CC(=O)NCC(=O)N[C@@H](CO)C(=O)O (stereo partly shown) [Lipid 654] |  |  |  |  |  | showed no capacity to activate the TLR4-expressing cell line | promoted significant HEK cell activation over the control cells; also recorded: significantly elevated over the DMSO vehicle | show the capacity to activate human TLR2 in HEK cells | significantly inhibited by pretreatment with anti-human TLR2 antibody | failed to do so | induced a significant increase in serum levels of CCL2 | no other common lipase enzymes | is hydrolyzed by phospholipase A2 (PLA2) enzymes | Approximately half | showed no ability to activate the TLR4-expressing cell line | significantly inhibited the course of EAE | inhibited by anti-TLR2 and anti-TLR6 antibodies | demonstrated NF-κB-activation |
